How the values were obtained:
[1] = test system: Patients diagnosed with Alzheimer's Disease; assay: Discontinuation of trial medication; type: in vivo, human
[2] = test system: Patients diagnosed with Alzheimer's Disease; assay: ADCS/ADL scale (Activities of Daily Living); type: in vivo, human
Source text: Subjects in the Placebo group received 21 weeks (5 months) of placebo medication.
The ADCS/ADL scale is a 23-item informant-based assessment scale measuring widely applicable daily activities appropriate for patients in the mild to moderate category of Alzheimer's Disease. The 23 items were selected for measurement from the larger set of 45 items studied by Galasko et al (Alzheimer Disease and Associated Disorders, Vol 11, Suppl. 2, 1997). These individual items were scored from 0-3 to […], depending on the question, with a possible total score of 78. A higher score indicated a higher functioning patient.
The items and scoring were as follows: • Eating (0-3) • Walking (0-3) • Toileting (0-3) • Bathing (0-3) • Grooming (0-3) • Dressing • selection of clothes (0-3) • physical performance (0-4) • Telephone (0-5) • Television (0-3) • Conversation (0-3) • Dishes (0-3) • Managing personal belongings (0-3) • Obtaining beverages (0-3) • Making a meal or snack (0-4) • Disposal of garbage (0-3) • Travel outside home (0-4) • Shopping (0-4) • Keeping appointments (0-3) • Ability to be left alone (0-3) • Current events (0-3) • Reading (0-2) • Writing (0-3) • Hobbies (0-3) • Household appliances (0-4)
An additional secondary indication captures overall changes in Activities of daily Living (ADL) performances as measured by the Alzheimer's Disease Cooperative Study Activities of Daily Living (ACDS/ADL) scale. As mentioned above this scale is comprised of 23 items that have been tested and validated in patients with mild to moderately severe Alzheimer's disease.

COc1ccc2c3c1O[C@H]1C[C@@H](O)C=C[C@@]31CCN(C)C2 [GAL, galantamine]
DC due to adverse event, % ([1]; 8 mg/day): 6% | Total discontinued (DC), % ([1]; 8 mg/day): 23% | DC due to adverse event, % ([1]; 16 mg/day): 7% | Total discontinued (DC), % ([1]; 16 mg/day): 22% | DC due to adverse event, % ([1]; 24 mg/day): 10% | Total discontinued (DC), % ([1]; 24 mg/day): 22% | Change in Total ADL score from baseline at Month 5, Mean ([2]; 8 mg/day, LOCF): −3.2 | Change in Total ADL score from baseline at Month 5, Mean ([2]; 8 mg/day, observed case): −3.1 | Change in Total ADL score from baseline at Month 5, Mean ([2]; 16 mg/day, LOCF): −0.7 | Change in Total ADL score from baseline at Month 5, Mean ([2]; 16 mg/day, observed case): −0.5 | Change in Total ADL score from baseline at Month 5, Mean ([2]; 24 mg/day, LOCF): −1.5 | Change in Total ADL score from baseline at Month 5, Mean ([2]; 24 mg/day, observed case): −1.6
